Results as given in PMC6151726, “Design and Antiproliferative Evaluation of Novel Sulfanilamide Derivatives as Potential Tubulin Polymerization Inhibitors” (Molecules : A Journal of Synthetic Chemistry and Natural …, 2017).
In brackets after ≈: the same amount, converted by molar mass. Where two headings read alike, the source gives them in different places.

Columns and labels:
[1] = test system: MCF-7 (human breast cancer cell line); assay: MTT antiproliferative assay, MCF-7; assay type: cell-based; conditions: MCF7, exposure for 48 h, means ± SDs of three independent experiments
Protocol: (§1) All synthesized sulfonamide-1,2,3-triazole hybrids were evaluated for their anticancer activity against three cancer cell lines: MGC-803 (human gastric cancer cell line), MCF-7 (human breast cancer cell line), and PC-3 (human prostate cancer cell line) using a MTT (4,5-dimethyl-2-thiazolyl)-2,5-diphenyl-2-H-tetrazolium bromide) assay. The well-known tubulin polymerization inhibitor CA-4P was used as a control. In [24], 5-fluorouracil (5-Fu) was selected as the control in the antiproliferative evaluation assay of 1,2,3-triazole derivatives. Therefore, 5-Fu was also used as the reference drug in this MTT assay.
(§2) MGC-803 cells (human gastric cancer), MCF-7 (human breast cancer), PC-3 (human prostate cancer) and GES-1 (human gastric epithelial cell) were cultured in RPMI 1640 medium with 10% FBS and 100 U/mL penicillin and 0.1 mg/mL streptomycin in the 37 °C in an atmosphere containing 5% CO2. All cell lines were purchased from the China Center for Type Culture Collection (CCTCC, Shanghai, China). For pharmacological investigations, 10 mM stock solutions of the tested compounds were prepared with dimethyl sulfoxide (DMSO). […] The MTT assay was prepared according to the previous method.

[2] = test system: MGC-803 (human gastric cancer cell line); assay: MTT antiproliferative assay, MGC-803; assay type: cell-based; conditions: exposure for 48 h, means ± SDs of three independent experiments
Protocol: as §1, §2

[3] = test system: PC-3 (human prostate cancer cell line); assay: MTT antiproliferative assay, PC-3; assay type: cell-based; conditions: exposure for 48 h, means ± SDs of three independent experiments
Protocol: as §1, §2

[4] = test system: MGC-803, MCF-7 and PC-3 cells; assay: MTT antiproliferative assay, three cancer cell lines together; assay type: cell-based; conditions: Homo sapiens; range over MGC-803, MCF-7 and PC-3; read-out: IC50 values ranging over three cell lines
Protocol: as §1, §2

tubulin [5] = assay: In vitro tubulin polymerization inhibition assay; assay type: biochemical; conditions: 5.6 mg/mL tubulin in PEM buffer, read-out: inhibitory concentration that reduced the polymerized tubulin by 50% (IC50)
Protocol: The inhibitory concentrations that reduced the polymerized tubulin by 50% of CA-4P was 2.40 μM [25]. To investigate whether the synthesized 1,2,3-triazole-sulfonamide hybrids target the tubulin-microtubule system, the in vitro tubulin polymerization inhibition activity of compound 11f was evaluated because of its best antiproliferative activity results among all the tested compounds in the initial cytotoxicity screening. When tubulin was incubated with the tested 1,2,3-triazole-sulfonamide 11f at the indicated concentrations, an increased fluorescence intensity was obvious.
Tubulin polymerization in vitro was assyed with 100 μL samples and monitored by absorbance at 350 nm (Filter A00019x) in 96-well plates with an Appliskan plate reader (Thermo Fisher Scientific, Waltham, MA, USA). An amount of 5.6 mg/mL tubulin was resuspended in PEM buffer (80 mM PIPES (pH 6.9), 1 mM EGTA, 0.5 mM MgCl2, […], 10.2% (v/v) glycerol) and then was preincubated with compound 11f or vehicle DMSO on ice. Data were exported using the Thermo Scientific SkanIt software of the Appliskan (version 2.3) and Excel software was used to generate plots. For convenience, data were normalized to the minimum absorbance value of the initial stable plateau. This tubulin polymerization inhibition assay was measured according to the method originally.

[6] = MTT assay on normal cells, GES-1; assay type: cell-based; conditions: GES-1 cells (normal gastric epithelial cell line), normal human gastric epithelial cell line, read-out: inhibitory effect / cytotoxicity against GES-1
Protocol: Compound 11f was further examined for possible inhibitory effects against GES-1 (normal human gastric epithelial cell line).
as §2

PC3 cells = test system: PC3 cells; parameters: method as in PMID 27423028; conditions: read-out: IC50 against PC3 cells; cited from earlier work
4T1 mammary tumor cells = conditions: 45 mg/kg; cited from earlier work
CDK2 = test system: CDK2; parameters: method as in PMID 28005359; conditions: cited from earlier work
CDK1 = test system: CDK1; parameters: method as in PMID 28005359; conditions: cited from earlier work
[7] = test system: HCT116 human colon carcinoma; parameters: method as in PMID 10508428; conditions: cell proliferation assay; cited from earlier work
murine leukemia = test system: murine leukemia; parameters: method as in PMID 26501246; conditions: read-out: IC50 against the proliferation of murine leukemia; cited from earlier work
tubulin [8] = test system: tubulin; parameters: method as in PMID 24923521; conditions: read-out: IC50 inhibition of tubulin assembly; cited from earlier work
A2780AD cell line = test system: A2780AD cell line; parameters: method as in PMID 28640209; conditions: read-out: IC50 antiproliferative activity against A2780AD cell line; cited from earlier work

Row | Compound | IC50 [1] | IC50 [2] | IC50 ([3]; Homo sapiens, 48 h) | melting point | other results
1 | O=c1[nH]cc(F)c(=O)[nH]1 [5-Fu, 5-Fluorouracil, reference compound] | 21.2 ± 3.6 µM | 15.6 ± 0.4 µM | 13.9 ± 1.5 µM |  | 
2 | C#CCNS(=O)(=O)c1cccs1 [9a, N-(Prop-2-yn-1-yl)thiophene-2-sulfonamide] | > 100 µM | > 100 µM | > 100 µM |  | 
3 | C#CCNS(=O)(=O)c1ccc2oc(=O)ccc2c1 [9d, 2-Oxo-N-(prop-2-yn-1-yl)-2H-chromene-6-sulfonamide] | > 100 µM | > 100 µM | > 100 µM | 193 to 196 °C | 
4 | C#CCNS(=O)(=O)c1ccc(C)cc1 [9f, 4-Methyl-N-(prop-2-yn-1-yl)benzenesulfonamide] | > 100 µM | > 100 µM | > 100 µM |  | 
5 | O=S(=O)(NCc1cn(Cc2cccc(Oc3ccccc3)c2)nn1)c1cccs1 [11a, N-((1-(3-Phenoxybenzyl)-1H-1,2,3-triazol-4-yl)methyl)thiophene-2-sulfonamide] | 78.5 ± 2.2 µM | 17 ± 1.8 µM | 24.6 ± 0.9 µM | 104 to 106 °C | 
6 | O=S(=O)(NCc1cn(Cc2cccc(Oc3ccccc3)c2)nn1)c1ccc(Cl)s1 [11b, 5-Chloro-N-((1-(3-phenoxybenzyl)-1H-1,2,3-triazol-4-yl)methyl)thiophene-2-sulfonamide] | 49.9 ± 1.2 µM | 15.3 ± 0.8 µM | 19.8 ± 0.6 µM | 110 to 111 °C | 
7 | O=S(=O)(NCc1cn(Cc2cccc(Oc3ccccc3)c2)nn1)c1ccc(Br)s1 [11c, 5-Bromo-N-((1-(3-phenoxybenzyl)-1H-1,2,3-triazol-4-yl)methyl)thiophene-2-sulfonamide] | 34.7 ± 2.6 µM | 31 ± 2.2 µM | 49.4 ± 1 µM | 111 to 112 °C | 
8 | O=c1ccc2cc(S(=O)(=O)NCc3cn(Cc4cccc(Oc5ccccc5)c4)nn3)ccc2o1 [11d, 2-Oxo-N-((1-(3-phenoxybenzyl)-1H-1,2,3-triazol-4-yl)methyl)-2H-chromene-6-sulfonamide] | 36.4 ± 2 µM | 88.8 ± 0.5 µM | 34.1 ± 0.3 µM | 144 to 146 °C | IC50 [4]: 34.1 to 88.8 µM
9 | O=S(=O)(NCc1cn(Cc2cccc(Oc3ccccc3)c2)nn1)c1ccccc1 [11e, N-((1-(3-Phenoxybenzyl)-1H-1,2,3-triazol-4-yl)methyl)benzenesulfonamide] | 39.6 ± 5 µM | 21.7 ± 0.1 µM | 6.4 ± 1.2 µM | 127 to 130 °C | 
10 | Cc1ccc(S(=O)(=O)NCc2cn(Cc3cccc(Oc4ccccc4)c3)nn2)cc1 [11f, 4-Methyl-N-((1-(3-phenoxybenzyl)-1H-1,2,3-triazol-4-yl)methyl)benzenesulfonamide] | 15.7 ± 0.2 µM | 13.7 ± 2.9 µM | 4.08 µM | 118 to 121 °C | IC50 [4]: 4.1 to 15.7 µM; IC50 [3]: 4.1 ± 1.4 µM; IC50 (tubulin [5]): 2410 nM; IC50 [6]: > 64 µM
11 | CC(C)(C)c1ccc(S(=O)(=O)NCc2cn(Cc3cccc(Oc4ccccc4)c3)nn2)cc1 [11g, 4-(Tert-butyl)-N-((1-(3-phenoxybenzyl)-1H-1,2,3-triazol-4-yl)methyl)benzenesulfonamide] | 54.9 ± 1.7 µM | > 100 µM | 7.1 ± 0.5 µM | 137 to 139 °C | 
12 | Cc1cc(C)c(S(=O)(=O)NCc2cn(Cc3cccc(Oc4ccccc4)c3)nn2)c(C)c1 [11h, 2,4,6-Trimethyl-N-((1-(3-phenoxybenzyl)-1H-1,2,3-triazol-4-yl)methyl)benzenesulfonamide] | 24.6 ± 1.6 µM | 18.4 ± 0.7 µM | 24.7 ± 3 µM | 111 to 113 °C | 
13 | O=S(=O)(NCc1cn(Cc2cccc(Oc3ccccc3)c2)nn1)c1ccccc1Cl [11i, 2-Chloro-N-((1-(3-phenoxybenzyl)-1H-1,2,3-triazol-4-yl)methyl) benzenesulfonamide] | 77.5 ± 0.7 µM | 15.3 ± 0.5 µM | 22.7 ± 0.5 µM | 97 to 99 °C | 
14 | Cc1ccc(S(=O)(=O)NCc2cn(Cc3cccc(C#N)c3)nn2)cc1 [11j, N-((1-(3-Cyanobenzyl)-1H-1,2,3-triazol-4-yl)methyl)-4-methylbenzenesulfonamide] | > 100 µM | 41.3 ± 2.3 µM | > 100 µM | 145 to 147 °C | 
15 | Cc1ccc(S(=O)(=O)NCc2cn(Cc3cccc(C)c3)nn2)cc1 [11k, 4-Methyl-N-((1-(3-methylbenzyl)-1H-1,2,3-triazol-4-yl)methyl)benzenesulfonamide] | > 100 µM | 75.8 ± 0.6 µM | > 100 µM | 145 to 148 °C | 
16 | COc1cccc(Cn2cc(CNS(=O)(=O)c3ccc(C)cc3)nn2)c1 [11l, N-((1-(3-Methoxybenzyl)-1H-1,2,3-triazol-4-yl)methyl)-4-methylbenzenesulfonamide] | > 100 µM | 77.2 ± 7.8 µM | > 100 µM | 112 to 114 °C | 
17 | O=S1(=O)CCCN(S(=O)(=O)c2ccc(-c3cnc(C4CC4)o3)cc2)c2ccccc21 [BA-3P] |  |  |  |  | IC50 (PC3 cells): 5.88 µM
18 | NS(=O)(=O)c1ccc(NC(=O)Nc2cccc([N+](=O)[O-])c2)cc1 [compound 1] |  |  |  |  | formation of metastases by 4T1 mammary tumor cells (4T1 mammary tumor cells): significantly inhibited the formation of metastases
19 | NS(=O)(=O)c1ccc(Nc2nc(-c3cccc(-c4ccccc4)c3)c3nc[nH]c3n2)cc1 [compound 3] |  |  |  |  | IC50 (CDK2): 44 nM; fold less active toward CDK1 than CDK2 (CDK1; CDK1 vs CDK2): ~ 2000 fold; IC50 (CDK1): 86 µM
20 | NS(=O)(=O)c1ccc(S(=O)(=O)Nc2cccc3c(Cl)c[nH]c23)cc1 [compound 4, N-(3-chloro-7-indolyl)-1,4-benzenedisulfonamide] |  |  |  |  | IC50 against HCT116 human colon carcinoma [7]: 0.11 µg/mL (≈ 0.285 µM)
21 | Nc1nc(Cl)c2ncn(Cc3cn(C[C@H](OCc4ccccc4)[C@@H](O)P(=O)(OCc4ccccc4)OCc4ccccc4)nn3)c2n1 [compound 5] |  |  |  |  | IC50 (murine leukemia): 21 µM
22 | COc1cc2c(cc1O)CC[C@@H]1[C@@H]2CC[C@@]2(C)[C@H]1CC[C@@]2(O)c1cn(-c2ccc(OC(F)(F)F)cc2)nn1 [compound 7] |  |  |  |  | IC50 (tubulin [8]): 5.9 µM
23 | Quinolin-6-yloxyacetamide |  |  |  |  | IC50 (A2780AD cell line): 262 nM
